Source: the NIST ThermoML archive (doi:10.1021/acs.jced.5b00251)
Numbers after ± are expanded uncertainties.

Test: refractive index (other wavelength) (dimensionless); xn = mol fraction of the nth substance listed
Details: 101 kPa, Liquid, Standard Abbe refractometry

CC(C)Cc1ccccc1 [(2-methylpropyl)benzene] + c1ccc2c(c1)CCCC2
refractive index
Details	x2 = 0.1014	x2 = 0.2024	x2 = 0.3032	x2 = 0.4036	x2 = 0.5038	x2 = 0.6036	x2 = 0.7032	x2 = 0.8024	x2 = 0.9014
293.15 K, Wavelength=436.1 nm	1.50977 ± 0.00078	1.51503 ± 0.0008	1.52078 ± 0.00076	1.52612 ± 0.0008	1.53208 ± 0.00078	1.53797 ± 0.00077	1.54392 ± 0.00078	1.55007 ± 0.00077	1.55611 ± 0.00078
293.15 K, Wavelength=513.9 nm	1.49809 ± 0.001	1.50316 ± 0.00091	1.5087 ± 0.0009	1.51409 ± 0.00089	1.51959 ± 0.00092	1.52525 ± 0.0009	1.53097 ± 0.00091	1.5369 ± 0.00091	1.54273 ± 0.001
293.15 K, Wavelength=589.3 nm	1.49141 ± 0.00079	1.49657 ± 0.00077	1.50199 ± 0.00078	1.50701 ± 0.00084	1.51266 ± 0.00079	1.51821 ± 0.00078	1.52382 ± 0.00078	1.52961 ± 0.00078	1.53531 ± 0.00082
293.15 K, Wavelength=633.2 nm	1.4889 ± 0.00076	1.49381 ± 0.00076	1.49922 ± 0.00077	1.50445 ± 0.00077	1.50978 ± 0.0008	1.51528 ± 0.00074	1.52085 ± 0.00077	1.5266 ± 0.00075	1.53226 ± 0.0008
293.15 K, Wavelength=657.2 nm	1.48749 ± 0.00074	1.49254 ± 0.00076	1.49852 ± 0.00074	1.50384 ± 0.00078	1.50967 ± 0.00071	1.51394 ± 0.00076	1.52005 ± 0.00069	1.52522 ± 0.00076	1.53141 ± 0.00069
298.15 K, Wavelength=436.1 nm	1.50717 ± 0.00078	1.51248 ± 0.00078	1.51824 ± 0.00078	1.52362 ± 0.00078	1.52954 ± 0.00079	1.53551 ± 0.00077	1.54144 ± 0.00078	1.54758 ± 0.00078	1.55354 ± 0.00078
298.15 K, Wavelength=513.9 nm	1.49546 ± 0.00076	1.50075 ± 0.00076	1.50623 ± 0.00076	1.51165 ± 0.00077	1.51711 ± 0.00077	1.52288 ± 0.00076	1.5286 ± 0.00076	1.53447 ± 0.00076	1.54022 ± 0.00076
298.15 K, Wavelength=589.3 nm	1.48927 ± 0.00074	1.49432 ± 0.00076	1.49956 ± 0.00075	1.50446 ± 0.00075	1.51023 ± 0.00075	1.51588 ± 0.00074	1.52148 ± 0.00075	1.52722 ± 0.00075	1.53287 ± 0.00075
298.15 K, Wavelength=633.2 nm	1.48633 ± 0.00075	1.49149 ± 0.00075	1.49681 ± 0.00075	1.50206 ± 0.00077	1.50737 ± 0.00075	1.51298 ± 0.00075	1.51853 ± 0.00075	1.52424 ± 0.00074	1.52981 ± 0.00074
298.15 K, Wavelength=657.2 nm	1.48512 ± 0.00074	1.49029 ± 0.00073	1.49594 ± 0.00077	1.50135 ± 0.00076	1.50706 ± 0.00076	1.51205 ± 0.0007	1.51776 ± 0.00074	1.52302 ± 0.00074	1.52941 ± 0.00074
303.15 K, Wavelength=436.1 nm	1.50468 ± 0.00078	1.50986 ± 0.00076	1.51569 ± 0.00079	1.52094 ± 0.00076	1.52674 ± 0.0008	1.53306 ± 0.00078	1.53885 ± 0.00078	1.54503 ± 0.00078	1.55109 ± 0.00079
303.15 K, Wavelength=513.9 nm	1.49315 ± 0.00076	1.49828 ± 0.00075	1.50376 ± 0.00078	1.50899 ± 0.00076	1.5146 ± 0.00076	1.52033 ± 0.00078	1.52606 ± 0.00076	1.532 ± 0.00076	1.53785 ± 0.00078
303.15 K, Wavelength=589.3 nm	1.48673 ± 0.00076	1.49163 ± 0.00075	1.49715 ± 0.00076	1.5021 ± 0.00075	1.50776 ± 0.00077	1.51352 ± 0.00075	1.51899 ± 0.00075	1.52478 ± 0.00075	1.53052 ± 0.00075
303.15 K, Wavelength=633.2 nm	1.48406 ± 0.00075	1.48893 ± 0.00075	1.49439 ± 0.00076	1.49932 ± 0.00076	1.50493 ± 0.00077	1.51036 ± 0.00075	1.51604 ± 0.00075	1.52181 ± 0.00075	1.52748 ± 0.00076
303.15 K, Wavelength=657.2 nm	1.48275 ± 0.00074	1.48792 ± 0.00075	1.49332 ± 0.00076	1.49885 ± 0.00073	1.50461 ± 0.00074	1.50983 ± 0.00073	1.51528 ± 0.00076	1.52043 ± 0.00074	1.52666 ± 0.00075
308.15 K, Wavelength=436.1 nm	1.50202 ± 0.00078	1.50759 ± 0.00077	1.5129 ± 0.00079	1.51879 ± 0.00075	1.52412 ± 0.00079	1.53042 ± 0.00077	1.53639 ± 0.00077	1.5425 ± 0.00077	1.54823 ± 0.0008
308.15 K, Wavelength=513.9 nm	1.49045 ± 0.00076	1.49591 ± 0.00077	1.50103 ± 0.00076	1.50671 ± 0.00076	1.51215 ± 0.00076	1.51765 ± 0.00078	1.52366 ± 0.00076	1.52953 ± 0.00076	1.53505 ± 0.00078
308.15 K, Wavelength=589.3 nm	1.48428 ± 0.00074	1.48939 ± 0.00073	1.49461 ± 0.00076	1.49955 ± 0.00077	1.50515 ± 0.00077	1.51099 ± 0.00076	1.51661 ± 0.00075	1.52237 ± 0.00074	1.52797 ± 0.00076
308.15 K, Wavelength=633.2 nm	1.48142 ± 0.00075	1.48659 ± 0.00075	1.4917 ± 0.00075	1.49701 ± 0.00076	1.50224 ± 0.00078	1.50811 ± 0.00075	1.51368 ± 0.00074	1.51941 ± 0.00074	1.52477 ± 0.00076
308.15 K, Wavelength=657.2 nm	1.48038 ± 0.00074	1.48538 ± 0.00074	1.49085 ± 0.00073	1.49669 ± 0.00073	1.50224 ± 0.00076	1.50738 ± 0.00075	1.51272 ± 0.00076	1.51825 ± 0.00074	1.52447 ± 0.00075
313.15 K, Wavelength=436.1 nm	1.49957 ± 0.00078	1.5048 ± 0.00078	1.51044 ± 0.00077	1.51631 ± 0.00078	1.52152 ± 0.00078	1.52806 ± 0.00078	1.53388 ± 0.00078	1.54002 ± 0.00077	1.54572 ± 0.00079
313.15 K, Wavelength=513.9 nm	1.48816 ± 0.00075	1.49321 ± 0.00077	1.49885 ± 0.00076	1.50413 ± 0.00078	1.50976 ± 0.00074	1.51512 ± 0.00074	1.52123 ± 0.00075	1.52715 ± 0.00076	1.53263 ± 0.00077
313.15 K, Wavelength=589.3 nm	1.48198 ± 0.00074	1.48705 ± 0.00075	1.49215 ± 0.00076	1.49702 ± 0.00076	1.50259 ± 0.00078	1.50845 ± 0.00075	1.51422 ± 0.00075	1.52003 ± 0.00075	1.52558 ± 0.00077
313.15 K, Wavelength=633.2 nm	1.47918 ± 0.00075	1.48409 ± 0.00074	1.48957 ± 0.00074	1.49422 ± 0.00077	1.49959 ± 0.00076	1.50542 ± 0.00075	1.51132 ± 0.00075	1.51708 ± 0.00074	1.52248 ± 0.00075
313.15 K, Wavelength=657.2 nm	1.47807 ± 0.00074	1.48312 ± 0.00074	1.48866 ± 0.00075	1.49418 ± 0.00075	1.49947 ± 0.00078	1.50491 ± 0.00077	1.51025 ± 0.00077	1.51573 ± 0.00072	1.52168 ± 0.00079
318.15 K, Wavelength=436.1 nm	1.49678 ± 0.00081	1.50247 ± 0.00076	1.50783 ± 0.00076	1.51372 ± 0.00081	1.51897 ± 0.00073	1.52533 ± 0.00082	1.53125 ± 0.00077	1.53748 ± 0.00081	1.54301 ± 0.0008
318.15 K, Wavelength=513.9 nm	1.48564 ± 0.00061	1.49078 ± 0.00064	1.49611 ± 0.00068	1.50143 ± 0.00066	1.50751 ± 0.00067	1.51299 ± 0.00061	1.51892 ± 0.00064	1.52466 ± 0.00065	1.53007 ± 0.0006
318.15 K, Wavelength=589.3 nm	1.47955 ± 0.00072	1.48455 ± 0.00073	1.48962 ± 0.00073	1.49455 ± 0.00071	1.49987 ± 0.00071	1.50614 ± 0.00072	1.51175 ± 0.00071	1.51758 ± 0.00073	1.52287 ± 0.00072
318.15 K, Wavelength=633.2 nm	1.47656 ± 0.00074	1.48179 ± 0.00073	1.4869 ± 0.00077	1.49181 ± 0.00069	1.49721 ± 0.00069	1.50325 ± 0.00071	1.50887 ± 0.00074	1.51464 ± 0.00074	1.51989 ± 0.00073
318.15 K, Wavelength=657.2 nm	1.47562 ± 0.00075	1.48056 ± 0.00074	1.48595 ± 0.00076	1.49181 ± 0.00077	1.49685 ± 0.00076	1.50222 ± 0.00078	1.50758 ± 0.00074	1.51388 ± 0.00072	1.51897 ± 0.00078
